According to patent publication US7776572B2, “Method for reducing loss of enzyme activity during storage” (Corning Incorporated, priority 1996, dated 2010):
Where two headings read alike, the source gives them in different places.

What was measured:
[1] = test system: rat; settings: cited from earlier work
[2] = test system: ^125I-IgG (goat anti-mouse); assay: Radiometric determination of IgG binding to surfactant-coated polystyrene microtiter wells; settings: for Total IgG binding, Non-Sterilized: coated polystyrene wells; for Total IgG binding, Non-Sterilized / Tight IgG binding, Non-Sterilized: not sterilized; for Total IgG binding, Non-Sterilized / Total IgG binding, Sterilized: after three PBS washes; for Total IgG binding, Sterilized / Tight IgG binding, Sterilized: gamma sterilized (1.5 Mrad); for Tight IgG binding, Sterilized / Tight IgG binding, Non-Sterilized: after two hours in PBS-Tween (0.05%)
Experimental: The hydrophobic surfaces used were flat bottom microtiter plates composed of high binding polystyrene (Corning Costar No. 2581) and medium binding polystyrene (Corning Costar No. 2587). Testing was performed with and without gamma radiation sterilization using cobalt 60 (1.5 Mrad).
The surfactants were applied to the test plates as described in Materials and Methods, followed by sterilization where indicated.
Levels of protein binding were determined using a radiolabeled protein, namely, ^125I-IgG (goat anti-mouse) purchased from DuPont/NEN. Unlabeled IgG in sodium carbonate buffer pH 9.2 was spiked with ^125I-IgG so that the final concentration of labeled IgG and cold IgG in the test solution was 10 μg/mL.
Aliquots of 0.1 milliliters of the protein solution were placed in quadruplicate in the wells of 8-well strips removed from the test microtiter plates. The wells were incubated overnight at 4° C. with shaking. The supernatants were removed from the wells, followed by three washes with 0.2 mL of PBS. The wells were then dried and individually counted to determine “total” IgG binding. After determining “total” binding, the wells were incubated for two hours in 0.2 mL of PBS-Tween (0.05%) at room temperature with shaking. The supernatants were removed from the wells followed by three washes with 0.2 mL of PBS. The wells were dried and individually counted to determine “tight” IgG binding.
Untreated high binding and medium binding plates were used as controls. A comparative experiment was also performed in which a BSA protein coating was used in place of a surfactant coating. The BSA was preabsorbed onto the walls of the wells and then washed to remove excess material. Testing was then performed using the radiolabeled IgG solution as described above.
Radiolabel measurements were performed in a double blind study at BioMolecular Assays (Woburn, Mass.). IgG binding values per microwell were converted to ng/cm^2 values using a surface area of 0.94 cm^2 for a 0.1 mL volume.

[3] = test system: BSA protein (Bovine Serum Albumin, Fraction V); assay: BSA binding to coated polystyrene 24-well plates at different pH, colloidal gold stain; settings: for Absorbance (550 nm) pH = 9.2: BSA 10 μg/ml in 0.10 M NaHCO3 buffer; for Absorbance (550 nm) pH = 7.4: BSA 10 μg/ml in 0.10 M PBS; for Absorbance (550 nm) pH = 4.6: BSA 10 μg/ml in 0.10 M acetate buffer
Experimental: Polystyrene plates having 24 wells (Corning Costar #9447) were coated as described in Materials and Methods.
BSA protein (Bovine Serum Albumin, Fraction V, Sigma) was prepared at 10 μg/ml in 0.10 M acetate buffer (pH=4.6), in 0.10 M PBS (pH=7.4), and in 0.10 M NaHCO3 buffer (pH=9.2). Wells of each coated plate, along with uncoated controls, were aliquoted 0.50 ml each of the protein solutions. The samples were run in triplicate.
The plates were placed on a rocker table for 30 minutes at 23° C. The protein solutions were then emptied from the plates, and the wells were rinsed three times with dl H2O. Thereafter, 1.0 ml of colloidal gold stain was added to each well (see Materials and Methods). The plates were placed on a rocker table overnight, rinsed three times with dI H2O, and air dried. Absorbance at 550 nm was then read using the Cambridge Technologies Plate Reader.

[4] = test system: Horse IgG; assay: Protein binding by colloidal gold staining, coated medium binding polystyrene plates; settings: coated medium binding PS; IgG 10 μg/ml, pH 9.4
Experimental: Except where indicated, the non-ionic surfactants were applied to the hydrophobic surfaces being tested as a 0.1% (weight/volume) solution in isopropanol. A sufficient amount of coating solution was used to cover the surface being testing with a thin layer of the solution (e.g., 25 μl of the solution per well for a standard 24-well plate). In some cases, the solution was applied to surface by spraying; in others, it was poured onto the surface (into the well). Except where indicated, coated samples were either dried at 70° C. for 30 minutes in an air circulated oven or dried at room temperature overnight to evaporate the isopropanol.
Protein binding was determined in some examples using a colloidal gold straining procedure. In accordance with this procedure, colloidal gold becomes electrostatically attached to bound protein and is detected by measuring absorbance at 550 nanometers. Bio-Rad Laboratories' Colloidal Gold Total Protein Stain was used for this purpose, with absorbance being measured with a Cambridge Technologies Plate Reader (No. 7520).
The surfactants were coated onto medium binding polystyrene plates (Corning Costar No. 2587) as described in Material and Methods.
The plates were incubated with IgG as follows: 0.1 ml of Horse IgG (Pierce Labs) at a working concentration of 10 μg/ml in 0.10M NaHCO3 buffer (pH9.4) were added to each well, incubated 30 minutes on a rocker table, and rinsed with dI H2O. The plates were gold stained overnight (0.3 ml/well), rinsed in dI H2O, air dried, and absorbance was measured at 550 nm.

[5] = test system: HRP-Goat A'Mouse IgG; assay: Enzymatic determination of protein binding to coated medium binding polystyrene plate; settings: coated medium binding PS; versus uncoated high binding polystyrene plate; absorbance 405 nm
Experimental: The surfactants were coated onto a medium binding polystyrene plate (Corning Costar No. 2587) as described in Material and Methods. A medium binding polystyrene plate (Corning Costar No. 2587) and a high binding polystyrene plate (Corning Costar No. 2581) were used as controls.
(a) HRP-Goat A'Mouse IgG: Kirkegaard & Perry Laboratories, Inc. Catalog No. 074-1806. Stock solution: 0.5 mg/ml; working concentration: 0.04 μg/ml. The working concentration was obtained by adding 11 μl of the stock solution per 25 mls of PBS pH 7.4 to produce a work stock (WS), and then diluting 1:6 (i.e., 10 mls WS+50 mls PBS pH 7.4).
(1) 100 μl-well of HRP-Goat A'Mouse IgG at a concentration of 0.04 μg/ml were added to the test wells and incubated for 1 hour at room temperature.
(2) The wells were then washed 5 times with the 1M wash solution. Each wash include a 5 minute soak followed by decanting.
(3) 100 μl/well of substrate (30 mls ABTS+30 mls H2O2) were added to the test wells and incubated for 15 minutes at room temperature in the dark.
(4) 100 μl/well of stopping solution (1% SDS) were added to the test wells.
(5) The plates were then shaken and read at 405 nm.
(6) Reduction in binding was determined by comparing the absorbance measured in step (5) with the absorbance measured for a high binding polystyrene plate which had not been treated with a non-ionic surfactant but otherwise subjected to steps (1) to (5).

[6] = test system: bound protein; assay: Colloidal gold staining of bound protein after MDCK culture in media containing 5% FBS, visual; settings: colloidal gold after cell culture, visual observation
Experimental: The procedures used were as follows. Polystyrene 24-well plates were coated with the non-ionic surfactants listed in Table 5 in accordance with the procedures described in Materials and Methods. Uncoated plates were used as a control. For comparison, plates with a covalently attached acrylamide coating (Corning Costar Catalog #2500) and with a stearic acid coating were also tested. The stearic acid coating was applied in the same manner as the non-ionic surfactants again using a 0.1% (w/v) solution.
The plates were gamma sterilized at 1.5 Mrad and then inoculated with 5.6×10^4 MDCK […] per well in 1 ml of complete media containing 5% FBS (Fetal Bovine Serum). Incubation was carried out at 37° C. in a 5% CO2 atmosphere for two days. The plates were fixed and stained, and cell attachment was noted. Following this, the wells were stained using the colloidal gold technique to detect bound protein. Only visual observations were made.

[7] = test system: IgG; assay: IgG/Au staining of coated polystyrene, type of endgroups
Experimental: Except where indicated, the non-ionic surfactants were applied to the hydrophobic surfaces being tested as a 0.1% (weight/volume) solution in isopropanol. A sufficient amount of coating solution was used to cover the surface being testing with a thin layer of the solution (e.g., 25 μl of the solution per well for a standard 24-well plate). In some cases, the solution was applied to surface by spraying; in others, it was poured onto the surface (into the well). Except where indicated, coated samples were either dried at 70° C. for 30 minutes in an air circulated oven or dried at room temperature overnight to evaporate the isopropanol. Protein binding was determined in some examples using a colloidal gold straining procedure. In accordance with this procedure, colloidal gold becomes electrostatically attached to bound protein and is detected by measuring absorbance at 550 nanometers. Bio-Rad Laboratories' Colloidal Gold Total Protein Stain was used for this purpose, with absorbance being measured with a Cambridge Technologies Plate Reader (No. 7520). The non-ionic surfactants listed in Table 6 were tested for their ability to produce a low binding surface using the techniques described in Materials and Methods. Polystyrene was used as the hydrophobic test surface and IgG/Au staining was used as the readout.

[8] = test system: MDCK cells; assay: Cytotoxicity of extracts of coated plates; assay type: cell-based; settings: media extract of coated plates (37° C., 48 hours), MDCK 72 hours, Gram Crystal Violet
Experimental: Cytotoxicity experiments were performed using MDCK cells. The non-ionic surfactants tested were Pluronic L-121, L-122, and P-123; Span 80 and 85; and Brij 30, 72 and 93. These molecules were coated onto 24-well plates (Corning Costar #9447) from 0.1% (w/v) in isopropanol. Untreated polystyrene and normal tissue culture treated polystyrene (Corning Costar #25820) 24-well plates were used as controls. All plates were incubated at 37° C. for 48 hours with 2 ml/well of complete DMEM media containing 10% Fetal Bovine Serum (FBS). This incubation was performed in order to extract any potentially toxic compounds from the coated surface into the cell growth serum. The FBS solutions were then transferred to tissue culture treated polystyrene and each well was inoculated with ≈2×10^4 cells/well of MDCK cells, and then incubated at 37° C. for 72 hours in a 5% CO2 atmosphere. Cells were then stained with Gram Crystal Violet.

[9] = test system: BSA; assay: Polymer blends molded into petri dishes, BSA binding by colloidal gold; settings: blended at 5% into polypropylene; silver enhancer
[10] = test system: Fetal Bovine Serum (FBS); assay: Polymer blends molded into petri dishes, FBS protein binding by colloidal gold; settings: blended at 5% into polypropylene; silver enhancer
[11] = test system: IgG; assay: Coating durability using water washes, IgG binding by colloidal gold
Experimental: Polystyrene plates having 24 wells (Corning Costar #9447) were coated with these surfactants as described in Materials and Methods. Durability was tested by adding dI H2O to the wells of a test plate (3.0 mls/well), following which the plate was placed on a rocker table. […] The protein solution was incubated with the plate on a rocker table for 30 minutes at 23° C., following which the plate was H2O rinse 3× (3 mls each time). The colloidal gold staining procedure described above was used to reveal bound protein. The staining comprised an overnight incubation on a rocker table at 23° C., a dI H2O rinse, drying at room temperature, and reading at 550 nm.

Compound	LD50 [1]	Total IgG binding, Non-Sterilized [2]	Total IgG binding, Sterilized [2]	Tight IgG binding, Sterilized [2]	Tight IgG binding, Non-Sterilized [2]	Absorbance (550 nm) pH = 9.2 [3]	Absorbance (550 nm) pH = 7.4 [3]	Absorbance (550 nm) pH = 4.6 [3]	IgG Protein Binding Absorbance (550 nm) [4]	% Reduction in Protein Binding [5]	further results
[Cl-].[Na+] [NaCl, reference compound]											LD50 ([1]; in vivo): 4 grams/Kg
O=[As]O[As]=O (centres unmarked) [As2O3, reference compound]	0.02 grams/Kg										
CCCCCCCCCCCCCCCCCC(=O)OCCOCCOCCOCCOCCOCCOCCOCCO [PEO(8) STEARATE]	>31 grams/Kg	6 ng/cm^2	15 ng/cm^2	9 ng/cm^2	3 ng/cm^2	0.00	0.00	0.00	0.00	99.1%	
CCCCCCCCCCCCCCCCOCCOCCO [PEO(2) CETYL ETHER]		18 ng/cm^2	54 ng/cm^2	25 ng/cm^2	11 ng/cm^2	0.00	0.00	0.00	0.00	99.9%	Visual Color Upon Protein Staining [6]: None; Bound Protein Absorbance at 550 nm [7]: 0.00
SORBITOL TRI-OLEATE											cell growth and morphology [8]: confluent cell growth with normal cell morphology; Bound Protein Absorbance (550 nm) BSA [9]: 0.000; Bound Protein Absorbance (550 nm) FBS [10]: 0.000; Absorbance (550 nm) Initial ([11]; coated polystyrene, no water wash): 0.00; Absorbance (550 nm) 1 Time 1 hr 23° C. ([11]; dI H2O wash 1 time, 1 hr, 23° C.): 0.00; Absorbance (550 nm) 1 Time 24 hr 23° C. ([11]; dI H2O wash 1 time, 24 hr, 23° C.): 0.00; Absorbance (550 nm) 1 Time 24 hr 37° C. ([11]; dI H2O wash 1 time, 24 hr, 37° C.): 0.00; Absorbance (550 nm) 1 Time 24 hr 70° C. ([11]; dI H2O wash 1 time, 24 hr, 70° C.): 0.00; Absorbance (550 nm) 6 Times 30 min each 23° C. ([11]; dI H2O wash 6 times, 30 min each, 23° C.): 0.00
